Test results from US8846719B2, “Isoxazolo-pyridine derivatives” (Roche Palo Alto LLC, priority 2007, dated 2014).

Molecular target: human GABA A receptor α5β3γ2 (Homo sapiens (Human), UniProt P18507+P31644)
Assay: [3H]flumazenil competition binding assay, human GABA A α5β3γ2 receptors expressed in HEK293 cells
Conditions: human receptor; displacement of [3H]flumazenil (0.5 nM); means of two determinations; read-out: hKi GABAAa5
Procedure, shortened: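 Ki values, each the mean of two runs, derive from displacement of [3H]flumazenil from human α5β3γ2 GABA A receptors transiently expressed in HEK293 membranes. Binding ran 1 h at 4° C in Krebs-tris, pH 7.5, before filter harvest and scintillation counting.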

Question: With CCNC(=O)c1ccc(OCc2c(-c3ccncn3)noc2C)nc1 [Example 317, N-Ethyl-6-(5-methyl-3-pyrimidin-4-yl-isoxazol-4-ylmethoxy)-nicotinamide] as the compound, how does the Ki read?
Answer: 3.1 nM

Question: CNC(=O)c1ccc(OCc2c(-c3ccncn3)noc2C)nc1 [Example 318, N-Methyl-6-(5-methyl-3-pyrimidin-4-yl-isoxazol-4-ylmethoxy)-nicotinamide] was tested. Which Ki did it give?
Answer: 4.8 nM

Question: Cc1onc(-c2ccncn2)c1COc1ccc(C(=O)N2CCSCC2)cn1 [Example 319, [6-(5-Methyl-3-pyrimidin-4-yl-isoxazol-4-ylmethoxy)-pyridin-3-yl]-thiomorpholin-4-yl-methanone] was tested. Which Ki did it give?
Answer: 20.2 nM

Question: Cc1onc(-c2ccncn2)c1COc1ccc(C(=O)NCCO)cn1 [Example 320, N-(2-Hydroxy-ethyl)-6-(5-methyl-3-pyrimidin-4-yl-isoxazol-4-ylmethoxy)-nicotinamide] was tested. Which Ki did it give?
Answer: 6 nM

Question: Which Ki does the source give for CC(C)NC(=O)c1ccc(OCc2conc2-c2ccccc2)nc1 [Example 321, N-Isopropyl-6-(3-phenyl-isoxazol-4-ylmethoxy)-nicotinamide] here?
Answer: 21.4 nM

Question: For O=C(NC1CCOCC1)c1ccc(OCc2conc2-c2ccccc2)nc1 [Example 322, 6-(3-Phenyl-isoxazol-4-ylmethoxy)-N-(tetrahydro-pyran-4-yl)-nicotinamide], which Ki is on record?
Answer: 17.7 nM

Question: Which Ki does the source give for CC(C)NC(=O)c1ccc(OCc2conc2-c2ccc(F)cc2)nc1 [Example 323, 6-[3-(4-Fluoro-phenyl)-isoxazol-4-ylmethoxy]-N-isopropyl-nicotinamide] here?
Answer: 7.3 nM

Question: With O=C(NC1CCOCC1)c1ccc(OCc2conc2-c2ccc(F)cc2)nc1 [Example 324, 6-[3-(4-Fluoro-phenyl)-isoxazol-4-ylmethoxy]-N-(tetrahydro-pyran-4-yl)-nicotinamide] as the compound, how does the Ki read?
Answer: 10.6 nM

Question: How did the Ki turn out when CC(CO)NC(=O)c1ccc(OCc2conc2-c2ccc(F)cc2)nc1 (stereo not drawn) [Example 325, 6-[3-(4-Fluoro-phenyl)-isoxazol-4-ylmethoxy]-N-(2-hydroxy-1-methyl-ethyl)-nicotinamide] was run?
Answer: 9 nM

Question: With C[C@H](CO)NC(=O)c1ccc(OCc2conc2-c2ccc(F)cc2)nc1 [Example 326, 6-[3-(4-Fluoro-phenyl)-isoxazol-4-ylmethoxy]-N—((R)-2-hydroxy-1-methyl-ethyl)-nicotinamide] as the compound, how does the Ki read?
Answer: 27.7 nM

Question: For C[C@@H](CO)NC(=O)c1ccc(OCc2conc2-c2ccc(F)cc2)nc1 [Example 327, 6-[3-(4-Fluoro-phenyl)-isoxazol-4-ylmethoxy]-N—((S)-2-hydroxy-1-methyl-ethyl)-nicotinamide], which Ki is on record?
Answer: 13.9 nM

Question: O=C(NCC1CC1)c1ccc(OCc2conc2-c2ccc(F)cc2)nc1 [Example 328, N-Cyclopropylmethyl-6-[3-(4-fluoro-phenyl)-isoxazol-4-ylmethoxy]-nicotinamide] was tested. Which Ki did it give?
Answer: 17.4 nM

Question: For O=C(NC1CC1)c1ccc(OCc2conc2-c2ccc(F)cc2)nc1 [Example 329, N-Cyclopropyl-6-[3-(4-fluoro-phenyl)-isoxazol-4-ylmethoxy]-nicotinamide], which Ki is on record?
Answer: 12.9 nM

Question: For O=C(NCC(F)(F)F)c1ccc(OCc2conc2-c2ccc(F)cc2)nc1 [Example 330, 6-[3-(4-Fluoro-phenyl)-isoxazol-4-ylmethoxy]-N-(2,2,2-trifluoro-ethyl)-nicotinamide], which Ki is on record?
Answer: 15.1 nM

Question: With O=C(N[C@H]1CCC[C@@H]1O)c1ccc(OCc2conc2-c2ccc(F)cc2)nc1 [Example 331, 6-[3-(4-Fluoro-phenyl)-isoxazol-4-ylmethoxy]-N-((1S,2S)-2-hydroxy-cyclopentyl)-nicotinamide] as the compound, how does the Ki read?
Answer: 17.8 nM

Question: Which Ki does the source give for O=C(NCC(O)C(F)(F)F)c1ccc(OCc2conc2-c2ccc(F)cc2)nc1 (stereo not drawn) [Example 333, 6-[3-(4-Fluoro-phenyl)-isoxazol-4-ylmethoxy]-N-(3,3,3-trifluoro-2-hydroxy-propyl)-nicotinamide] here?
Answer: 13.1 nM

Question: With O=C(NC(CO)CO)c1ccc(OCc2conc2-c2ccc(F)cc2)nc1 [Example 334, 6-[3-(4-Fluoro-phenyl)-isoxazol-4-ylmethoxy]-N-(2-hydroxy-1-hydroxymethyl-ethyl)-nicotinamide] as the compound, how does the Ki read?
Answer: 21.2 nM

Question: With CC(=O)NCCNC(=O)c1ccc(OCc2conc2-c2ccc(F)cc2)nc1 [Example 335, N-(2-Acetylamino-ethyl)-6-[3-(4-fluoro-phenyl)-isoxazol-4-ylmethoxy]-nicotinamide] as the compound, how does the Ki read?
Answer: 37.6 nM

Question: Which Ki does the source give for COCCNC(=O)c1ccc(OCc2conc2-c2ccc(F)cc2)nc1 [Example 336, 6-[3-(4-Fluoro-phenyl)-isoxazol-4-ylmethoxy]-N-(2-methoxy-ethyl)-nicotinamide] here?
Answer: 40.7 nM

Question: How did the Ki turn out when C[C@@H](O)CNC(=O)c1ccc(OCc2conc2-c2ccc(F)cc2)nc1 [Example 337, 6-[3-(4-Fluoro-phenyl)-isoxazol-4-ylmethoxy]-N—((R)-2-hydroxy-propyl)-nicotinamide] was run?
Answer: 9.5 nM

Question: With O=C(NCCO)c1ccc(OCc2conc2-c2ccc(F)cc2)nc1 [Example 338, 6-[3-(4-Fluoro-phenyl)-isoxazol-4-ylmethoxy]-N-(2-hydroxy-ethyl)-nicotinamide] as the compound, how does the Ki read?
Answer: 23.3 nM

Question: For O=C(NCC1(O)CC1)c1ccc(OCc2conc2-c2ccc(F)cc2)nc1 [Example 339, 6-[3-(4-Fluoro-phenyl)-isoxazol-4-ylmethoxy]-N-(1-hydroxy-cyclopropylmethyl)-nicotinamide], which Ki is on record?
Answer: 23.1 nM

Question: How did the Ki turn out when O=C(NC1CCS(=O)(=O)C1)c1ccc(OCc2conc2-c2ccc(F)cc2)nc1 (stereo not drawn) [Example 340, N-(1,1-Dioxo-tetrahydro-1,6-thiophen-3-yl)-6-[3-(4-fluoro-phenyl)-isoxazol-4-ylmethoxy]-nicotinamide] was run?
Answer: 19.4 nM

Question: With O=C(NCC(F)(F)F)c1ccc(OCc2conc2-c2ccc(Cl)cc2)nc1 [Example 342, 6-[3-(4-Chloro-phenyl)-isoxazol-4-ylmethoxy]-N-(2,2,2-trifluoro-ethyl)-nicotinamide] as the compound, how does the Ki read?
Answer: 15.1 nM

Question: Which Ki does the source give for O=C(NC1CC1)c1ccc(OCc2conc2-c2ccc(Cl)cc2)nc1 [Example 343, 6-[3-(4-Chloro-phenyl)-isoxazol-4-ylmethoxy]-N-cyclopropyl-nicotinamide] here?
Answer: 12.4 nM

Question: CC(C)NC(=O)c1ccc(OCc2conc2-c2ccc(Cl)cc2)nc1 [Example 344, 6-[3-(4-Chloro-phenyl)-isoxazol-4-ylmethoxy]-N-isopropyl-nicotinamide] was tested. Which Ki did it give?
Answer: 5.6 nM

Question: Which Ki does the source give for O=C(NC1CCOCC1)c1ccc(OCc2conc2-c2ccc(Cl)cc2)nc1 [Example 345, 6-[3-(4-Chloro-phenyl)-isoxazol-4-ylmethoxy]-N-(tetrahydro-pyran-4-yl)-nicotinamide] here?
Answer: 6.4 nM

Question: How did the Ki turn out when O=C(NCCO)c1ccc(OCc2conc2-c2ccc(Cl)cc2)nc1 [Example 346, 6-[3-(4-Chloro-phenyl)-isoxazol-4-ylmethoxy]-N-(2-hydroxy-ethyl)-nicotinamide] was run?
Answer: 10.9 nM

Question: With CC(O)CNC(=O)c1ccc(OCc2conc2-c2ccc(Cl)cc2)nc1 (stereo not drawn) [Example 347, 6-[3-(4-Chloro-phenyl)-isoxazol-4-ylmethoxy]-N-(2-hydroxy-propyl)-nicotinamide] as the compound, how does the Ki read?
Answer: 7.1 nM

Question: How did the Ki turn out when O=C(NCCCO)c1ccc(OCc2conc2-c2ccc(Cl)cc2)nc1 [Example 348, 6-[3-(4-Chloro-phenyl)-isoxazol-4-ylmethoxy]-N-(3-hydroxy-propyl)-nicotinamide] was run?
Answer: 10.3 nM

Question: For CC(C)(CO)NC(=O)c1ccc(OCc2conc2-c2ccc(Cl)cc2)nc1 [Example 349, 6-[3-(4-Chloro-phenyl)-isoxazol-4-ylmethoxy]-N-(2-hydroxy-1,1-dimethyl-ethyl)-nicotinamide], which Ki is on record?
Answer: 39.9 nM

Question: How did the Ki turn out when CC(C)(CO)CNC(=O)c1ccc(OCc2conc2-c2ccc(Cl)cc2)nc1 [Example 350, 6-[3-(4-Chloro-phenyl)-isoxazol-4-ylmethoxy]-N-(3-hydroxy-2,2-dimethyl-propyl)-nicotinamide] was run?
Answer: 22.9 nM

Question: For CC(C)(C)OC(=O)N1CC(NC(=O)c2ccc(OCc3conc3-c3ccc(Cl)cc3)nc2)C1 [Example 351, 3-({6-[3-(4-Chloro-phenyl)-isoxazol-4-ylmethoxy]-pyridine-3-carbonyl}-amino)-azetidine-1-carboxylic acid tert-butyl ester], which Ki is on record?
Answer: 55.5 nM

Question: O=C(NC(CO)CO)c1ccc(OCc2conc2-c2ccc(Cl)cc2)nc1 [Example 353, 6-[3-(4-Chloro-phenyl)-isoxazol-4-ylmethoxy]-N-(2-hydroxy-1-hydroxymethyl-ethyl)-nicotinamide] was tested. Which Ki did it give?
Answer: 5.5 nM

Question: For C[C@H](CO)NC(=O)c1ccc(OCc2conc2-c2ccc(Cl)cc2)nc1 [Example 354, 6-[3-(4-Chloro-phenyl)-isoxazol-4-ylmethoxy]-N—((R)-2-hydroxy-1-methyl-ethyl)-nicotinamide], which Ki is on record?
Answer: 10.7 nM

Question: With C[C@@H](CO)NC(=O)c1ccc(OCc2conc2-c2ccc(Cl)cc2)nc1 [Example 355, 6-[3-(4-Chloro-phenyl)-isoxazol-4-ylmethoxy]-N—((S)-2-hydroxy-1-methyl-ethyl)-nicotinamide] as the compound, how does the Ki read?
Answer: 4.3 nM

Question: How did the Ki turn out when CC(=O)NCCNC(=O)c1ccc(OCc2conc2-c2ccc(Cl)cc2)nc1 [Example 356, N-(2-Acetylamino-ethyl)-6-[3-(4-chloro-phenyl)-isoxazol-4-ylmethoxy]-nicotinamide] was run?
Answer: 13.1 nM

Question: C[C@H](NC(=O)c1ccc(OCc2conc2-c2ccc(Cl)cc2)nc1)C(F)(F)F [Example 357, 6-[3-(4-Chloro-phenyl)-isoxazol-4-ylmethoxy]-N—((S)-2,2,2-trifluoro-1-methyl-ethyl)-nicotinamide] was tested. Which Ki did it give?
Answer: ~20 nM

Question: How did the Ki turn out when O=C(NC1CCOCC1)c1ccc(OCc2conc2-c2ccccn2)nc1 [Example 358, 6-(3-Pyridin-2-yl-isoxazol-4-ylmethoxy)-N-(tetrahydro-pyran-4-yl)-nicotinamide] was run?
Answer: 17.8 nM

Question: With CC(C)NC(=O)c1ccc(OCc2conc2-c2ccccn2)nc1 [Example 359, N-Isopropyl-6-(3-pyridin-2-yl-isoxazol-4-ylmethoxy)-nicotinamide] as the compound, how does the Ki read?
Answer: 13.1 nM

Question: How did the Ki turn out when O=C(NC1CC1)c1ccc(OCc2conc2-c2ccccn2)nc1 [Example 360, N-Cyclopropyl-6-(3-pyridin-2-yl-isoxazol-4-ylmethoxy)-nicotinamide] was run?
Answer: 18.9 nM

Question: How did the Ki turn out when O=C(NCC1CC1)c1ccc(OCc2conc2-c2ccccn2)nc1 [Example 361, N-Cyclopropylmethyl-6-(3-pyridin-2-yl-isoxazol-4-ylmethoxy)-nicotinamide] was run?
Answer: 19 nM
